One may read the EC50 as the concentration needed to bring the measured effect to its halfway point.

SMILES strings stand for the structures. Some results are limits rather than exact numbers.

Results on 49 compounds are retold here after US11040954B1, “CXCR3 receptor agonists” (RECEPTOS LLC, priority 2016, dated 2021).

In this assay the target is T1, CXCR3 (Homo sapiens, UniProt P49682).
T1 construct: host or cells: CHO-K1 (cAMP Hunter CHOK1 CXCR3 Gi cell line)
T1 sequence (P49682 1-368): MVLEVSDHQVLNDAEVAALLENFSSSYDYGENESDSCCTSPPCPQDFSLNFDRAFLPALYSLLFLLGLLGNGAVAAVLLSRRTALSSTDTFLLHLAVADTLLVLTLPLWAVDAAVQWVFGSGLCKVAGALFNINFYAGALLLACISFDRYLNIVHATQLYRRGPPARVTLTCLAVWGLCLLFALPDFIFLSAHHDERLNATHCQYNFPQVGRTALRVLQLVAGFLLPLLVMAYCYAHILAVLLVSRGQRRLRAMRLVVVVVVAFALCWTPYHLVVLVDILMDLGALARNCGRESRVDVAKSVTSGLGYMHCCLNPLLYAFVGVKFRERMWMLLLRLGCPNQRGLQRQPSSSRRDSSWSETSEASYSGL
Put plainly: CXCR3 cAMP agonist assay (cAMP Hunter CHOK1 CXCR3 Gi cell line, forskolin-stimulated, HitHunter cAMP detection). Type of assay: cell-based. The following applies: cAMP Hunter CHOK1 CXCR3 Gi cells, 20 μM forskolin, 30 minutes; read-out: Activity (CXCR3 cAMP agonist assay compound EC50). The method, boiled down:
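CHOK1 cells expressing human CXCR3 with Gi coupling, 50,000/well in suspension in HBSS/10 mM HEPES/0.1% BSA pH 7.4, were co-treated with 20 μM forskolin and compound (12-point, 0-10 μM, 1% DMSO) for 30 min. cAMP was read by enzyme-complementation luminescence; CXCL11 dose response set maximum efficacy.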
Take `Cc1cc(NC(=O)[C@H](CCN)NC(=O)[C@@H]2Cc3ccccc3CN2C(=O)CCC(=O)N2CCN(C)CC2(C)C)ccc1Cl` [Compound 12-103]: the EC50 was < 0.05 µM. Under `CCC1CN(C(=O)CCC(=O)N2Cc3ccccc3C[C@H]2C(=O)N[C@@H](CCN)C(=O)Nc2ccc(Cl)c(C)c2)CCN1C` (stereo partly shown) [Compound 12-104] stands < 0.05 µM. On to `Cc1cc(NC(=O)[C@H](CCN)NC(=O)[C@@H]2Cc3ccccc3CN2C(=O)CCC(=O)N2C3CCC2CN(C)C3)ccc1Cl` [Compound 12-105], for which the EC50 was > 0.5 µM. For the compound `CC(=O)N1CCN(C(=O)CCC(=O)N2Cc3ccccc3C[C@H]2C(=O)N[C@@H](CCN)C(=O)Nc2ccc(Cl)c(C)c2)CC1` [Compound 12-106], the EC50 lay within 0.25 to 0.5 µM. With `Cc1cc(NC(=O)[C@H](CCN)NC(=O)[C@@H]2Cc3ccccc3CN2C(=O)CCC(=O)N2CCN(c3ncccn3)CC2)ccc1Cl` [Compound 12-107] the figure was 0.05 to 0.25 µM; with `Cc1cc(NC(=O)[C@H](CCN)NC(=O)[C@@H]2Cc3ccccc3CN2C(=O)CCC(=O)N2CCN(c3nccs3)CC2)ccc1Cl` [Compound 12-108], 0.05 to 0.25 µM; with `Cc1cc(NC(=O)[C@H](CCN)NC(=O)[C@@H]2Cc3ccccc3CN2C(=O)CCC(=O)N2CCN(C(=O)N(C)C)CC2)ccc1Cl` [Compound 12-109], 0.25 to 0.5 µM.

As for `Cc1cc(NC(=O)[C@H](CCN)NC(=O)[C@@H]2Cc3ccccc3CN2C(=O)CCC(=O)N2CCN3CCC[C@@H]3C2)ccc1Cl` [Compound 12-110], the EC50 is < 0.05 µM. Consider `CC[C@H]1CCCN1C(=O)CCC(=O)N1Cc2ccccc2C[C@H]1C(=O)N[C@@H](CCN)C(=O)Nc1ccc(Cl)c(C)c1` [Compound 12-111], for which the EC50 is < 0.05 µM. Consider `CC[C@@H]1CCCCN1C(=O)CCC(=O)N1Cc2ccccc2C[C@H]1C(=O)N[C@@H](CCN)C(=O)Nc1ccc(Cl)c(C)c1` [Compound 12-112], for which the EC50 was < 0.05 µM. With `COCCN(C)C(=O)CCC(=O)N1Cc2ccccc2C[C@H]1C(=O)N[C@@H](CCN)C(=O)Nc1ccc(Cl)c(C)c1` [Compound 12-113] the figure was 0.25 to 0.5 µM; with `Cc1cc(NC(=O)[C@H](CCN)NC(=O)[C@@H]2Cc3ccccc3CN2C(=O)CCC(=O)N2CCNCC2)ccc1Cl` [Compound 12-115], > 0.5 µM. `Cc1cc(NC(=O)[C@H](CCN)NC(=O)[C@@H]2Cc3ccccc3CN2C(=O)CCC(=O)N2CCN(C)C[C@@H]2C)ccc1Cl` [Compound 12-116]: the EC50 fell in the range of 0.05 to 0.25 µM. With `Cc1cc(NC(=O)[C@H](CCN)NC(=O)[C@@H]2Cc3ccccc3CN2C(=O)CCC(=O)N2CCN(CC#N)CC2)ccc1Cl` [Compound 12-117], the EC50 fell in the range of 0.05 to 0.25 µM. With `[2H]C([2H])([2H])N1CCN(C(=O)CCC(=O)N2Cc3ccccc3C[C@H]2C(=O)N[C@@H](CCN)C(=O)Nc2ccc(Cl)c(C)c2)CC1` [Compound 12-118] the figure was < 0.05 µM; with `Cc1cc(NC(=O)[C@H](CCN)NC(=O)[C@@H]2Cc3ccccc3CN2C(=O)CCC(=O)N(C)CC(F)(F)F)ccc1Cl` [Compound 12-119], 0.25 to 0.5 µM.

As to `CCC1CCCN(C(=O)CCC(=O)N2Cc3ccccc3C[C@H]2C(=O)N[C@@H](CCN)C(=O)Nc2ccc(Cl)c(C)c2)C1` (stereo partly shown) [Compound 12-120], the EC50 is < 0.05 µM. For `Cc1cc(NC(=O)[C@H](CCN)NC(=O)[C@@H]2Cc3ccccc3CN2C(=O)CCC(=O)N2CCCCC2C(C)C)ccc1Cl` (stereo partly shown) [Compound 12-121], the half-maximal effective concentration (EC50) is < 0.05 µM. As to `Cc1cc(NC(=O)[C@H](CCN)NC(=O)[C@@H]2Cc3ccccc3CN2C(=O)CCC(=O)N2CC[C@@H](C)C2)ccc1Cl` [Compound 12-122], the EC50 is < 0.05 µM. With `Cc1cc(NC(=O)[C@H](CCN)NC(=O)[C@@H]2Cc3ccccc3CN2C(=O)CCC(=O)N2CC[C@H](C)C2)ccc1Cl` [Compound 12-123] the figure was < 0.05 µM. With `Cc1cc(NC(=O)[C@H](CCN)NC(=O)[C@@H]2Cc3ccccc3CN2C(=O)CCC(=O)N(C)c2ccccc2)ccc1Cl` [Compound 12-124] the figure was 0.25 to 0.5 µM; with `CN(C(=O)CCC(=O)N1Cc2ccccc2C[C@H]1C(=O)NC1(C(=O)Nc2ccc(Cl)c(Cl)c2F)CCNCC1)C(C)(C)C` [Compound 12-125], 0.05 to 0.25 µM; with `CCN1CCN(C(=O)CCC(=O)N2Cc3ccccc3C[C@H]2C(=O)N[C@@H](CCN)C(=O)Nc2ccc(Cl)c(C)c2)C(C)(C)C1` [Compound 12-126], 0.05 to 0.25 µM. With `CC1(C)COCCN1C(=O)CCC(=O)N1Cc2ccccc2C[C@H]1C(=O)NC1(C(=O)Nc2ccc(Cl)c(Cl)c2F)CCNCC1` [Compound 12-127] the figure was 0.05 to 0.25 µM. For the compound `O=C(NC1(C(=O)Nc2ccc(Cl)c(Cl)c2F)CCNCC1)[C@@H]1Cc2ccccc2CN1C(=O)CCC(=O)N1CCCC2(CCC2)C1` [Compound 12-128], the EC50 was < 0.05 µM. Under `CC(C)(C)CNC(=O)CCC(=O)N1Cc2ccccc2C[C@H]1C(=O)NC1(C(=O)Nc2ccc(Cl)c(Cl)c2F)CCNCC1` [Compound 12-129] stands 0.25 to 0.5 µM; under `CC1(C)CCCN(C(=O)CCC(=O)N2Cc3ccccc3C[C@H]2C(=O)NC2(C(=O)Nc3ccc(Cl)c(Cl)c3F)CCNCC2)C1` [Compound 12-130], < 0.05 µM; under `Cc1cc(NC(=O)[C@H](CCN)NC(=O)[C@@H]2Cc3ccccc3CN2C(=O)CCC(=O)N2CCN(C)C(C)(C)C2)ccc1Cl` [Compound 12-131], < 0.05 µM. With `Cc1cc(NC(=O)[C@H](CCN)NC(=O)[C@@H]2Cc3ccccc3CN2C(=O)CCC(=O)N2CCC[C@@H]2c2ccccc2)ccc1Cl` [Compound 12-132] the figure was 0.05 to 0.25 µM.

`Cc1cc(NC(=O)[C@H](CCN)NC(=O)[C@@H]2Cc3ccccc3CN2C(=O)CCC(=O)N2CC(N(C)C)C2)ccc1Cl` [Compound 12-133]: the EC50 lay within 0.05 to 0.25 µM. On to `COC[C@@H]1CCCN1C(=O)CCC(=O)N1Cc2ccccc2C[C@H]1C(=O)N[C@@H](CCN)C(=O)Nc1ccc(Cl)c(C)c1` [Compound 12-134], for which the EC50 was 0.05 to 0.25 µM. `CC1(C)CCCCN1C(=O)CCC(=O)N1Cc2ccccc2C[C@H]1C(=O)NC1(C(=O)Nc2ccc(Cl)c(Cl)c2F)CCNCC1` [Compound 12-135]: the EC50 was < 0.05 µM. For the compound `O=C(NC1(C(=O)Nc2ccc(Cl)c(Cl)c2F)CCNCC1)[C@@H]1Cc2ccccc2CN1C(=O)CCC(=O)N1CCCC12CCC2` [Compound 12-136], the EC50 was < 0.05 µM. With `CN(CC(C)(C)C)C(=O)CCC(=O)N1Cc2ccccc2C[C@H]1C(=O)NC1(C(=O)Nc2ccc(Cl)c(Cl)c2F)CCNCC1` [Compound 12-137] the figure was 0.05 to 0.25 µM; with `Cc1cc(NC(=O)[C@H](CCN)NC(=O)[C@@H]2Cc3ccccc3CN2C(=O)CCC(=O)N2CCC[C@H]2CF)ccc1Cl` [Compound 12-139], < 0.05 µM; with `Cc1cc(NC(=O)[C@H](CCN)NC(=O)[C@@H]2Cc3ccccc3CN2C(=O)CCC(=O)N2CCN(C)c3ccccc32)ccc1Cl` [Compound 12-140], < 0.05 µM. With `Cc1cc(NC(=O)[C@H](CCN)NC(=O)[C@@H]2Cc3ccccc3CN2C(=O)CCC(=O)N2[C@H](C)CCC[C@H]2C)ccc1Cl` [Compound 12-141] the figure was < 0.05 µM; with `Cc1cc(NC(=O)[C@H](CCN)NC(=O)[C@@H]2Cc3ccccc3CN2C(=O)CCC(=O)N2[C@@H](C)CCC[C@@H]2C)ccc1Cl` [Compound 12-142], < 0.05 µM. Under `Cc1cc(NC(=O)[C@H](CCN)NC(=O)[C@@H]2Cc3ccccc3CN2C(=O)CCC(=O)N2CCC[C@H]2C(F)F)ccc1Cl` [Compound 12-143] stands < 0.05 µM; under `Cc1cc(NC(=O)[C@H](CCN)NC(=O)[C@@H]2Cc3ccccc3CN2C(=O)CCC(=O)N2CCC[C@@H]2CF)ccc1Cl` [Compound 12-144], < 0.05 µM. In the case of `Cc1cc(NC(=O)[C@H](CCN)NC(=O)[C@@H]2Cc3ccccc3CN2C(=O)CCC(=O)N2CCN(C)C2)ccc1Cl` [Compound 12-145], the EC50 was < 0.05 µM. `Cc1cc(NC(=O)[C@H](CCN)NC(=O)[C@@H]2Cc3ccccc3CN2C(=O)CCC(=O)N2CC3CCC2CN3C)ccc1Cl` (stereo partly shown) [Compound 12-146]: the EC50 is > 0.5 µM. Turning to `Cc1cc(NC(=O)[C@H](CCN)NC(=O)[C@@H]2Cc3ccccc3CN2C(=O)CCC(=O)N2CCC[C@H]2c2ccccc2)ccc1Cl` [Compound 12-147], the EC50 is < 0.05 µM. For the compound `NCC[C@H](NC(=O)[C@@H]1Cc2ccccc2CN1C(=O)CCC(=O)N1CCC[C@@H]1c1ccccc1)C(=O)Nc1ccc(Cl)c(Cl)c1F` [Compound 12-148], the 50% effective concentration (EC50) lay within 0.25 to 0.5 µM. As for `NCC[C@H](NC(=O)[C@@H]1Cc2ccccc2CN1C(=O)CCC(=O)N1CCC[C@H]1c1ccccc1)C(=O)Nc1ccc(Cl)c(Cl)c1F` [Compound 12-149], the EC50 is < 0.05 µM.

As for `CC[C@H]1CN(C(=O)CCC(=O)N2Cc3ccccc3C[C@H]2C(=O)N[C@@H](CCN)C(=O)Nc2ccc(Cl)c(C)c2)CCN1C` [Compound 12-150], the EC50 is < 0.05 µM.

For the compound `CC[C@@H]1CN(C(=O)CCC(=O)N2Cc3ccccc3C[C@H]2C(=O)N[C@@H](CCN)C(=O)Nc2ccc(Cl)c(C)c2)CCN1C` [Compound 12-151], the EC50 is < 0.05 µM.

Consider `CC[C@H]1CCN(C(=O)CCC(=O)N2Cc3ccccc3C[C@H]2C(=O)N[C@@H](CCN)C(=O)Nc2ccc(Cl)c(C)c2)C1` [Compound 12-153], for which the EC50 is < 0.05 µM. Under `CC[C@@H]1CCN(C(=O)CCC(=O)N2Cc3ccccc3C[C@H]2C(=O)N[C@@H](CCN)C(=O)Nc2ccc(Cl)c(C)c2)C1` [Compound 12-154] stands < 0.05 µM.
